Reference: patent US9162992B2, “Compounds and compositions for treatment of breathing control disorders or diseases” (GALLEON PHARMACEUTICALS, INC., priority 2010, dated 2015)

Assay: Stability as a function of pH 2-6 (1 mg/mL, 0.25 mg/mL at pH 6; 10 mM citric acid and glycine)
Format: physicochemical
Set-up: growth in impurities / Assay: unit not given here
Details: for Impurities: in %
Description: Buffer solutions containing ca. 10 mM each of citric acid and glycine in the pH range 2-6 were prepared by titrating 250 mL of a single stock containing both buffer agents with 1N NaOH/1N HCl and removing 50 mL aliquots at predetermined pH values. XXXVI solutions at 1 mg/mL were prepared in buffers of pH 2-5 by dissolving ˜25 mg of XXXVI in ˜23 mL of a given buffer, adjusting the pH to the target and making up the volume to 25.0 mL in a volumetric flask. (XXXVI) solution at pH 6 was prepared similarly, but at a lower drug concentration of 0.25 mg/mL using 6.68 mg of (XXXVI).
Each of the buffered XXXV solutions was filtered through a 0.2 μm polyether sulfone syringe filter into a volumetric flask, which had been previously rinsed with 70% ethanol and dried in a laminar flow hood. Following filtration, each buffered (XXXV) solution was split into 10 aliquots (9 aliquots of 2.5 mL each and 1 aliquot of 2 mL) in 5 mL serum vials previously rinsed with 70% ethanol and dried in a laminar flow hood. Filtration and preparation of aliquots were performed in a laminar flow hood. The 2 mL aliquot of each buffered (XXXV) solution was submitted for T0 analysis (HPLC assay and related substances).
Of the nine 2.5 mL aliquots, three aliquots were stored at each 40° C. and 60° C., two aliquots were stored at 25° C. and one aliquot was stored at −70° C. Samples stored at 40° C. and at 60° C. were evaluated for physical appearance, pH, assay and related substances after 1 week, 2 weeks and 4 weeks of storage. Samples at 25° C. and −70° C. served as controls to be analyzed if necessary.

For `CCCNc1nc(NCCC)nc(N(C)OC)n1` [XXXV, N-(4,6-Bis-n-propylamino-[1,3,5]triazin-2-yl)-N,O-dimethyl-hydroxylamine], the physical appearance (all samples, up to 4 weeks at 40° C. and 60° C.) was “remained clear, colorless and particle free”, the “stability at pH 2 compared to remaining pH values” (assay and impurities data) was “significantly less stable at pH 2” and the growth in impurities (pH 3-6, 40° C. and 60° C.) was > 0.2. The Assay (target pH 2, 40° C. 1 wk) was 0.997, the pH (target pH 2, 40° C. 1 wk) was 2.02 and the Impurities (target pH 2, 40° C. 1 wk) was 0.58. For the same compound, the Assay (target pH 2, 40° C. 2 wk) was 0.975, the pH (target pH 2, 40° C. 2 wk) was 1.98 and the Impurities (target pH 2, 40° C. 2 wk) was 1.48. The Assay (target pH 2, 40° C. 4 wk) was 0.970, the pH (target pH 2, 40° C. 4 wk) was 2.00 and the Impurities (target pH 2, 40° C. 4 wk) was 2.49. It also gave an Assay (target pH 2, 60° C. 1 wk) of 0.929, a pH (target pH 2, 60° C. 1 wk) of 2.00 and an Impurities (target pH 2, 60° C. 1 wk) of 3.83. For the same compound, the Assay (target pH 2, 60° C. 2 wk) was 0.754, the pH (target pH 2, 60° C. 2 wk) was 1.99 and the Impurities (target pH 2, 60° C. 2 wk) was 9.89. The Assay (target pH 2, 60° C. 4 wk) was 0.754, the pH (target pH 2, 60° C. 4 wk) was 2.01 and the Impurities (target pH 2, 60° C. 4 wk) was 14.34. The Assay (target pH 2, initial) was 1.02, the pH (target pH 2, initial) was 1.96 and the Assay (target pH 3, 40° C. 1 wk) was 0.984. The pH (target pH 3, 40° C. 1 wk) was 3.05, the Assay (target pH 3, 40° C. 2 wk) was 0.987 and the pH (target pH 3, 40° C. 2 wk) was 3.05. For the same compound, the Impurities (target pH 3, 40° C. 2 wk) was 0.19, the Assay (target pH 3, 40° C. 4 wk) was 0.991 and the pH (target pH 3, 40° C. 4 wk) was 3.06. For the same compound, the Impurities (target pH 3, 40° C. 4 wk) was 0.41, the Assay (target pH 3, 60° C. 1 wk) was 0.971 and the pH (target pH 3, 60° C. 1 wk) was 3.07. For the same compound, the Impurities (target pH 3, 60° C. 1 wk) was 0.71, the Assay (target pH 3, 60° C. 2 wk) was 0.952 and the pH (target pH 3, 60° C. 2 wk) was 3.03. For the same compound, the Impurities (target pH 3, 60° C. 2 wk) was 1.20, the Assay (target pH 3, 60° C. 4 wk) was 0.952 and the pH (target pH 3, 60° C. 4 wk) was 3.07. It also gave an Impurities (target pH 3, 60° C. 4 wk) of 2.19, an Assay (target pH 3, initial) of 0.984 and a pH (target pH 3, initial) of 3.02. The Assay (target pH 4, 40° C. 1 wk) was 0.999, the pH (target pH 4, 40° C. 1 wk) was 3.94 and the Assay (target pH 4, 40° C. 2 wk) was 1.006. The pH (target pH 4, 40° C. 2 wk) was 3.96, the Impurities (target pH 4, 40° C. 2 wk) was 0.17 and the Assay (target pH 4, 40° C. 4 wk) was 1.012. The pH (target pH 4, 40° C. 4 wk) was 3.96, the Impurities (target pH 4, 40° C. 4 wk) was 0.22 and the Assay (target pH 4, 60° C. 1 wk) was 0.992. It also gave a pH (target pH 4, 60° C. 1 wk) of 3.94, an Assay (target pH 4, 60° C. 2 wk) of 0.979 and a pH (target pH 4, 60° C. 2 wk) of 3.96. For the same compound, the Impurities (target pH 4, 60° C. 2 wk) was 0.52, the Assay (target pH 4, 60° C. 4 wk) was 0.979 and the pH (target pH 4, 60° C. 4 wk) was 3.97. It also gave an Impurities (target pH 4, 60° C. 4 wk) of 1.02, an Assay (target pH 4, initial) of 1.01 and a pH (target pH 4, initial) of 4.00. It also gave an Assay (target pH 5, 40° C. 1 wk) of 0.989, a pH (target pH 5, 40° C. 1 wk) of 4.90 and an Assay (target pH 5, 40° C. 2 wk) of 0.992. The pH (target pH 5, 40° C. 2 wk) was 4.95, the Impurities (target pH 5, 40° C. 2 wk) was 0.26 and the Assay (target pH 5, 40° C. 4 wk) was 0.977. It also gave a pH (target pH 5, 40° C. 4 wk) of 4.97, an Assay (target pH 5, 60° C. 1 wk) of 0.977 and a pH (target pH 5, 60° C. 1 wk) of 4.92. For the same compound, the Assay (target pH 5, 60° C. 2 wk) was 0.947, the pH (target pH 5, 60° C. 2 wk) was 4.93 and the Impurities (target pH 5, 60° C. 2 wk) was 0.62. The Assay (target pH 5, 60° C. 4 wk) was 0.947, the pH (target pH 5, 60° C. 4 wk) was 4.98 and the Impurities (target pH 5, 60° C. 4 wk) was 1.10. For the same compound, the Assay (target pH 5, initial) was 1.01, the pH (target pH 5, initial) was 5.03 and the Assay (target pH 6, 40° C. 1 wk) was 0.257. The pH (target pH 6, 40° C. 1 wk) was 5.88, the Assay (target pH 6, 40° C. 2 wk) was 0.253 and the pH (target pH 6, 40° C. 2 wk) was 6.02. For the same compound, the Impurities (target pH 6, 40° C. 2 wk) was 0.25, the Assay (target pH 6, 40° C. 4 wk) was 0.251 and the pH (target pH 6, 40° C. 4 wk) was 5.98. For the same compound, the Impurities (target pH 6, 40° C. 4 wk) was 0.28, the Assay (target pH 6, 60° C. 1 wk) was 0.247 and the pH (target pH 6, 60° C. 1 wk) was 5.87. For the same compound, the Impurities (target pH 6, 60° C. 1 wk) was 0.56, the Assay (target pH 6, 60° C. 2 wk) was 0.234 and the pH (target pH 6, 60° C. 2 wk) was 6.03. The Impurities (target pH 6, 60° C. 2 wk) was 0.87, the Assay (target pH 6, 60° C. 4 wk) was 0.234 and the pH (target pH 6, 60° C. 4 wk) was 6.01. For the same compound, the Impurities (target pH 6, 60° C. 4 wk) was 1.65, the Assay (target pH 6, initial) was 0.260 and the pH (target pH 6, initial) was 6.05.
